{"source": "ChEMBL document CHEMBL1159273", "about": "“[Cytotoxicity of aspidospermane indole alkaloids with a modified tryptamine chain]” (J Nat Prod, 1995)", "test_system": "L1210", "experiment": "Cytotoxicity against mouse L1210 cells after 48 hrs by MTT method", "assay_type": "functional, cell-based", "settings": "L1210, 48 h", "data": [{"compound": "CC[C@]12CCCN3[C@@H](OC)C[C@]4(C(=Nc5ccccc54)[C@@](Cl)(C(=O)OC)C1)[C@@H]32", "values": [{"measurement": "IC50", "value": 3.1, "unit": "µM"}]}, {"compound": "CC[C@]12CCC[N+]3([O-])CC[C@]4(C(=Nc5ccccc54)[C@@](Cl)(C(=O)OC)C1)[C@H]23", "note": "(some centres not stated)", "values": [{"measurement": "IC50", "value": 27.4, "unit": "µM"}]}, {"compound": "CC[C@]12CCCN3C[C@@H](Br)[C@@]4(c5ccccc5N5[C@H]4[C@]5(C(=O)OC)C1)[C@@H]32", "values": [{"measurement": "IC50", "value": 141, "unit": "µM"}]}, {"compound": "CC[C@]12CCCN3CC[C@@]4(c5ccccc5N5[C@H]4[C@]5(C(=O)OC)C1)[C@@H]32", "values": [{"measurement": "IC50", "value": 156, "unit": "µM"}]}, {"compound": "CC[C@]12CCC[N+]3([O-])C[C@@H](Br)[C@]4(C(=Nc5ccccc54)[C@@](Cl)(C(=O)OC)C1)[C@H]23", "note": "(some centres not stated)", "values": [{"measurement": "IC50", "value": 14.1, "unit": "µM"}]}, {"compound": "COc1cccc2c1C(=O)c1c(O)c3c(c(O)c1C2=O)C[C@@](O)(C(=O)CO)C[C@@H]3O[C@H]1C[C@H](N)[C@H](O)[C@H](C)O1", "note": "[DOXORUBICIN]", "values": [{"measurement": "IC50", "value": 0.03, "unit": "µM"}]}, {"compound": "CC[C@]12CCCN3C[C@@H](Br)[C@@]4(c5ccccc5N[C@H]4[C@@](Cl)(C(=O)OC)C1)[C@@H]32", "values": [{"measurement": "IC50", "value": 46.8, "unit": "µM"}]}]}
